Where “and” joins values, the source holds several entries; their conditions need not be identical. Identical values can stand only once. Positions of bridges follow the written chain, without caps; N, C: chain ends. Residues, ends and D or L forms follow the SMILES beside them.
Assays:
[1] = target: T1, NPR-A signaling in HeLa cells (Homo sapiens, UniProt P16066); test: cGMP AlphaScreen assay in HeLa cells (Examples 14, 15); assay type: cell-based; conditions: 30 minutes at 37° C.
T1 construct: Cyclic GMP (cGMP) elevation in HeLa cells in response to Natriuretic Peptide stimulation; endogenous in cells; host or cells: HeLa cells
T1 sequence (P16066 33-1061): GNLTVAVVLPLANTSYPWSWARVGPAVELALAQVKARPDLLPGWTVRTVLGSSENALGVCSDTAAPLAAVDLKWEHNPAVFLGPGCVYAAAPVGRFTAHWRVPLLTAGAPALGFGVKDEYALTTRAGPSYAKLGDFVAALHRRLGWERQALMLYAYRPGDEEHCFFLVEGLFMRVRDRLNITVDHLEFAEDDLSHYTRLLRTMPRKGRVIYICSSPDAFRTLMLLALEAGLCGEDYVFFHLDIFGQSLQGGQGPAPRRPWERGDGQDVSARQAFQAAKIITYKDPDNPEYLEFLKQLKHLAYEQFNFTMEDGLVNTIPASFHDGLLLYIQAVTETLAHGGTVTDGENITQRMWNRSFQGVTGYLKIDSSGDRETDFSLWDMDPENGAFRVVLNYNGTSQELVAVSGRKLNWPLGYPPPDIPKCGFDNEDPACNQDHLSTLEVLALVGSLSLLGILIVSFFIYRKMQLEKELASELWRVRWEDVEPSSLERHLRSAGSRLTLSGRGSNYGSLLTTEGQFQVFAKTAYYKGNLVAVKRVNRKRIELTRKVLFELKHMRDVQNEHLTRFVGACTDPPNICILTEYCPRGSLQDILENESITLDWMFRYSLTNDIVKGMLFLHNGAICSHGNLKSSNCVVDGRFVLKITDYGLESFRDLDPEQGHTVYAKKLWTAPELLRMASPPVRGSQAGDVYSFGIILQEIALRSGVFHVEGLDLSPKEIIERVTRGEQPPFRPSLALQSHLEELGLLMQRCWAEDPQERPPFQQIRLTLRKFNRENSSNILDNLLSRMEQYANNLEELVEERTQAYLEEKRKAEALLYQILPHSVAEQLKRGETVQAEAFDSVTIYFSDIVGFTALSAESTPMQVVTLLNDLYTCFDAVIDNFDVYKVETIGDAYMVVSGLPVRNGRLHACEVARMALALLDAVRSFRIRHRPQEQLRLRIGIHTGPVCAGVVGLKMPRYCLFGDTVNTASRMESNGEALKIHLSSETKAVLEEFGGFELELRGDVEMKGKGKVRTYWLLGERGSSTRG
Protocol: HeLa cells were maintained in RPMI cell culture medium (Gihco Invitrogen, Mt Waverley, Australia) supplemented with 10% Foetal Bovine Serum (Cambrex Bio Science, Rockland, USA). Upon reaching confluence, cells were sub-cultured such that they would be 70-90% confluent at time of assay.
Cyclic GMP (cGMP) elevation in HeLa cells in response to Natriuretic Peptide stimulation was performed using a cGMP AlphaScreen kit (PerkinElmer, Boston, USA), as follows for normal experiments: Cells were detached, pelleted to remove growth medium, and resuspended in Stimulation Buffer (Hank's Balanced Salt Solution, 0.1% Bovine Serum Albumin [BSA] (Sigma-Aldrich, Castle Hill, Australia), 1 mM 3-Isobutyl-1-methylxanthine [IBMX] (Sigma-Aldrich, Castle Hill, Australia)) and diluted to 6×10^6 cells per mL (30 000 cells per 5 μL). 5 μL of cells were added to wells of white 384-well OptiPlates (PerkinElmer, Boston, USA), and stimulated with increasing concentrations of peptide for 30 minutes at 37° C. Cells were then lysed with 10 μL Lysis buffer (dH2O, 0.3% Tween-20 (Sigma-Aldrich, Castle Hill, Australia), 5 mM HEPES (JRH Biosciences, Kansas, USA) and 0.1% BSA) and 5 μL acceptor bead mix (10 μL per mL acceptor beads and 1/3000 anti-cGMP antibody (BioVision, Mountain View, USA) in lysis buffer) added per well in the dark. Plates were incubated in the dark at room temperature for 30 minutes, then 5 μL donor bead mix (10 μL per ML donor beads and 0.3 nM biotinylated cGMP in lysis buffer) was added per well in the dark and the plate incubated overnight at room temperature. Signal was read using an EnVision plate reader (PerkinElmer, Boston, USA) and data analysed using Prism software. The cGMP standard curve was performed as per manufacturer's instructions.
To examine whether TNPc and synthetic analogs produced in the inventors' laboratory could stimulate NPR-A signaling, cGMP elevations in HeLa cells in response to these peptides were measured, as described above.

[2] = tested on: denuded aortic rings, GC A receptor; test: Relaxation of noradrenaline constricted endothelium-denuded aortic rings (Example 11); set-up: species or system rat; conditions: GC-A mediated
Summary of the method: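 Endothelium-denuded thoracic aortic rings (5 mm) from male Sprague Dawley rats were held at 10 g tension in carbogenated physiological salt solution at 37 °C. Denudation was confirmed by under 10% ACh (10 μM) relaxation after phenylephrine (0.3 μM). Rings constricted with noradrenaline, scaled to 40 mM KCl contraction, were relaxed with increasing peptide doses, with at least 3 rings per peptide.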

[3] = −Log10EC50 (pEC50) ± Standard Error, cGMP accumulation in HeLa cells

CC[C@H](C)[C@@H]1NC(=O)[C@H](CCCCN)NC(=O)[C@H](Cc2c[nH]cn2)NC(=O)CNC(=O)[C@H](Cc2ccccc2)NC(=O)[C@@H](NC(=O)[C@@H]2CCCN2C(=O)[C@H](CC(=O)O)NC(=O)[C@H](Cc2ccc(O)cc2)NC(=O)[C@H](CCCCN)NC(=O)[C@@H](NC(=O)[C@@H](N)CCC(=O)O)C(C)C)CSSC[C@@H](C(=O)N2CCC[C@H]2C(=O)N[C@@H](CO)C(=O)N[C@@H](CC(C)C)C(=O)N[C@@H](CCCNC(=N)N)C(=O)N[C@@H](CC(=O)O)C(=O)N2CCC[C@H]2C(=O)N[C@@H](CCCNC(=N)N)C(=O)N2CCC[C@H]2C(=O)N[C@@H](CC(N)=O)C(=O)N[C@@H](C)C(=O)N2CCC[C@H]2C(=O)N[C@@H](CO)C(=O)N[C@H](C(=O)N[C@@H](CO)C(=O)N[C@@H](C)C(=O)O)[C@@H](C)O)NC(=O)CNC(=O)[C@H](CC(C)C)NC(=O)[C@H](CC(N)=O)NC(=O)[C@H](CO)NC(=O)[C@H](C(C)C)NC(=O)[C@H](Cc2c[nH]cn2)NC(=O)[C@H](CC(N)=O)NC(=O)[C@H]([C@@H](C)CC)NC(=O)[C@H](CCCNC(=N)N)NC(=O)[C@H](CC(=O)O)NC1=O [DNP, reference compound] (H-EVKYDPCFGHKIDRINHVSNLGCPSLRDPRPNAPSTSA-OH; disulfide 7-23; N-terminus and C-terminus assumed)
EC50 ([1]; EC50, cGMP accumulation in HeLa cells): 0.392 nM | EC50 [1, 3]: 0.382 nM

CC[C@H](C)[C@H](NC(=O)[C@H](CCCCN)NC(=O)[C@H](CO)NC(=O)[C@H](CC(=O)O)NC(=O)[C@@H](N)CO)C(=O)NCC(=O)N[C@@H](CC(N)=O)C(=O)NCC(=O)N[C@H]1CSSC[C@@H](C(=O)N[C@@H](CC(N)=O)C(=O)N[C@@H](CCCNC(=N)N)C(=O)N[C@H](C(=O)N[C@@H](CCSC)C(=O)N[C@@H](CCC(N)=O)C(=O)N[C@@H](CC(N)=O)C(=O)N2CCC[C@H]2C(=O)N2CCC[C@H]2C(=O)N[C@@H](CCCCN)C(=O)N[C@@H](CCCCN)C(=O)N[C@@H](Cc2ccccc2)C(=O)N[C@@H](CO)C(=O)NCC(=O)N[C@@H](CCC(=O)O)C(=O)O)[C@@H](C)CC)NC(=O)CNC(=O)[C@H](CC(C)C)NC(=O)CNC(=O)[C@H](CO)NC(=O)[C@H](C(C)C)NC(=O)[C@H](CO)NC(=O)CNC(=O)[C@H]([C@@H](C)CC)NC(=O)[C@H](CCCNC(=N)N)NC(=O)[C@H](CC(=O)O)NC(=O)[C@H](CC(C)C)NC(=O)[C@@H]2CCCN2C(=O)[C@H](Cc2ccccc2)NC(=O)CNC(=O)[C@H](Cc2ccccc2)NC1=O [TNPc] (H-SDSKIGNGCFGFPLDRIGSVSGLGCNRIMQNPPKKFSGE-OH; disulfide 9-25)
EC50 [1, 3]: 124000 nM | Mean relaxation SEM of denuded aortic rings expressed as % of KCl response [2]: 55.0 ± 10.7%

CC[C@H](C)[C@@H]1NC(=O)[C@H](CCCNC(=N)N)NC(=O)[C@H](CC(=O)O)NC(=O)[C@H](CCSC)NC(=O)[C@H](CCCNC(=N)N)NC(=O)CNC(=O)CNC(=O)[C@H](Cc2ccccc2)NC(=O)[C@@H](NC(=O)[C@H](CO)NC(=O)[C@H](CO)NC(=O)[C@H](CCCNC(=N)N)NC(=O)[C@H](CCCNC(=N)N)NC(=O)[C@H](CC(C)C)NC(=O)[C@@H](N)CO)CSSC[C@@H](C(=O)N[C@@H](CC(N)=O)C(=O)N[C@@H](CO)C(=O)N[C@@H](Cc2ccccc2)C(=O)N[C@@H](CCCNC(=N)N)C(=O)N[C@@H](Cc2ccc(O)cc2)C(=O)O)NC(=O)CNC(=O)[C@H](CC(C)C)NC(=O)CNC(=O)[C@H](CO)NC(=O)[C@H](CCC(N)=O)NC(=O)[C@H](C)NC(=O)CNC1=O [hANP, reference compound]
Mean relaxation SEM of denuded aortic rings expressed as % of KCl response [2]: 66% and 66.5 ± 2.3%

From patent US8058242B2, “Chimeric proteins with natriuretic activity” (The University of Queensland, priority 2004, dated 2011)
